Laboratory results from ChEMBL document CHEMBL3507680, “University of Dundee, Gates Library screen for HepG2 cell viability”.

Experiment: Human HepG2 cell viability assay in 384 well format
Format: toxicity, cell-based
Parameters: dose 125 nL, time 70.5 hour; cytotoxicity at 70.5 h: concentration not given beside the values
Details: HepG2 cells, read-out: Inhibition

| Structure (SMILES) | cytotoxicity at 70.5 h |
| --- | --- |
| Cn1cc(-c2csc(N3CCN(c4nccs4)CC3)n2)cn1 | -0.763% |
| CCS(=O)(=O)N1CCC(c2nccn2Cc2ccccn2)CC1 | -5.3% |
| O=C(C[C@H]1[C@H]2CN(Cc3ccc(F)cc3)C[C@@H]12)N1CCCC1 | -3.22% |
| CCC1CN(C(=O)c2cc(C(C)=O)c(C)[nH]c2=O)CCN1C(C)C (stereo not given) | -9.37% |
| CCc1ccc(C(=O)N2CCC(c3nncn3CC)CC2)s1 | -7.92% |
| CN(C)C(=O)N1CCN(Cc2nc3ccccc3[nH]2)[C@H]2CS(=O)(=O)C[C@H]21 | 25% |
| CNc1ncc(CN(C)C(=O)[C@@]23CNC[C@@H]2CN(C2CCCC2)C3)cn1 | -4.91% |
| CCN1CCN(S(=O)(=O)c2cc(C)c(C)cc2Br)CC1 | -6.61% |
| CC(C)Oc1ccc(CNC(=O)CCN2C(=O)CCC2=O)cc1F | -3.49% |
| O=C(c1ccc2c(c1)[nH]c(=O)n2[C@H]1CC[C@H](O)CC1)N1CCOCC1 | -12.1% |
| CN(CCc1ccccn1)C(=O)c1cnn(-c2ccccc2F)c1N | 7.25% |
| CN1CCN(C[C@@H]2CN(C(=O)CCc3cn[nH]c3)C[C@@H]2CO)CC1 | -6.13% |
| CC(C)n1cc(CN2CCCN(C(=O)c3ccoc3)CC2)cn1 | 27.6% |
| N#CCCNC(=O)CSc1ccc(F)cc1F | -5.86% |
| Cc1noc(C)c1CC(=O)N[C@@H]1CC[C@@H](Oc2ccccc2)[C@@H]1O | -3.35% |
| c1cnc(N2C[C@@H]3CC[C@H](C2)N(Cc2ccsc2)C3)nc1 | -9.26% |
| Cc1nc(Cn2nc(C3CCNCC3)n(Cc3ccccc3)c2=O)no1 | 6.65% |
| CC1CCC(N2CCC(NS(=O)(=O)CCOC(C)C)CC2)CC1 (stereo not given) | 14.8% |
| COC(=O)N1CCC(Nc2cccc(F)c2C#N)CC1 | -3.28% |
| Cc1ccccc1CC(=O)N(C)C1CCN(c2ccccn2)CC1 | 25.2% |
| Cc1noc(C)c1CN1Cc2nccn2CC(CN2CCOCC2)C1 (stereo not given) | -11.8% |
| CSCC(=O)N1C[C@H]2CC[C@@H]1CN(Cc1ccccc1)C2 | -3.17% |
| COc1ncccc1CNCc1c(C)nn(C)c1N1CCOCC1 | -12.3% |
| CCOCC1CN(Cc2cnn(C)c2)Cc2nn(C)cc21 (stereo not given) | 2.42% |
| CCOCC(O)CN1CCN(C(=O)C2CC2)CC1 (stereo not given) | -13.7% |
| COc1ccc(CN2CCO[C@H]3CN(C(C)=O)CC[C@H]3C2=O)cc1 | 19.5% |
| Cc1cnc2n(c1=O)C(CC(=O)NCc1cccs1)CS2 (stereo not given) | 0.951% |

| Structure (SMILES) | cytotoxicity at 70.5 h |
| --- | --- |
| COc1ccccc1CN(Cc1cccnc1)CC1CCCO1 (stereo not given) | -1.02% |
| COCCS(=O)(=O)NC(C)c1ccccc1Br (stereo not given) | -0.0652% |
| CC(C)(C)SCC(=O)NC(C)(C(N)=O)c1cccc(Cl)c1 (stereo not given) | -6.38% |
| CC(=O)Nc1nc(CN(C)C2CCCN(c3cccnn3)C2)cs1 (stereo not given) | -13.5% |
| CN(c1ccncn1)C1CC2(CCN(C(=O)c3ccsc3)C2)C1 (stereo not given) | -28.9% |
| Cc1cc(C)nc(C2CCN(C(=O)c3cnco3)C2)n1 (stereo not given) | -6.7% |
| CC(=O)c1cccc(NC(=O)c2cnc(N3CCN(C)CC3)nc2C)c1 | 12.8% |
| O=C(CNC(=O)C1CC1)NCC(F)(F)F | 1.27% |
| COc1ccccc1N1CCN(C(=O)COc2c(C)occc2=O)CC1 | 6.76% |
| COC1COC2(CCN(Cc3ccccc3C)CC2)C1 (stereo not given) | -13.2% |
| Cc1cccnc1[C@H](C)NC(=O)Cc1cc2c(cc1Cl)OCCO2 | 32.1% |
| Cc1cc(C)nc(N2CCCC(c3nccn3CCCN(C)C)C2)c1 (stereo not given) | -13.7% |
| Fc1ccc(-c2cnc(CN3CCOC(Cn4cccn4)C3)o2)cc1 (stereo not given) | -5.15% |
| CNS(=O)(=O)c1ccc(CNC(=O)N(C)C(C)COC)cc1 (stereo not given) | -97.7% |
| CCn1c(SCC(N)=O)nnc1C(C)NC(=O)c1ccc(Cl)cc1 (stereo not given) | 17.8% |
| CS(=O)(=O)N1CCC(Oc2ccc(C(=O)NCCC(N)=O)cc2Cl)CC1 | 6.15% |
| CC1(C)CCC(C(=O)N2CCCO2)c2ccccc21 (stereo not given) | 9.21% |
| Cc1cc(CNC(=O)C2CC(=O)N(CCN(C)C)C2)cc(C)n1 (stereo not given) | 27.5% |
| CCOc1cc(C)nc(N2CCN(C(=O)c3cscn3)CC2)n1 | -4.61% |
| COCCCN(Cc1ccccc1Cl)C1CCS(=O)(=O)C1 (stereo not given) | 25.3% |
| COc1ccccc1OCc1nc(C(C)C)no1 | 12.8% |
| Cc1ccc2nc(C3CCCN3C(=O)c3cc(=O)[nH]c(=O)[nH]3)[nH]c2c1 (stereo not given) | 30.8% |
| COC(=O)[C@@H]1Cc2ncn(C)c2CN1S(=O)(=O)c1cccs1 | -1.34% |
| O=C(Cc1ccc(O)cc1)N1CCCC(O)(CN2CCOCC2)CC1 (stereo not given) | -7.8% |
| CSc1ncccc1C(=O)NCCC(O)c1cccs1 (stereo not given) | -2.95% |
| CN(C)C(=O)NC1COC2(CCN(S(=O)(=O)c3ccccc3)CC2)C1 (stereo not given) | -10.3% |
| COCCN(C)C[C@H]1C[C@@H](CO)CN(C(=O)c2ccn(C)c(=O)c2)C1 | -8.04% |

| Structure (SMILES) | cytotoxicity at 70.5 h |
| --- | --- |
| COc1cccc(CN(C)Cc2nc3c(cnn3C)c(=O)[nH]2)c1OC | -5.01% |
| CCOC(=O)c1n[nH]cc1CN1CCCC(N(C)Cc2ccccc2)C1 (stereo not given) | 2.53% |
| CCCn1nc2c(cc1=O)CN(Cc1cc(C)no1)CC2 | -8.28% |
| COCCN1CCCC2(CCC(=O)N2Cc2cccnc2)C1 (stereo not given) | 28.9% |
| COCC(=O)N(Cc1cccnc1)CC1CCN(C2CCCC2)CC1 | 1.31% |
| Cn1ncc2c1C(COCC1CC1)CN(CC1CC1)C2 (stereo not given) | -6.33% |
| CN(C)C(=O)[C@@H]1CCO[C@@H]2CCN(c3ncccn3)C[C@H]21 | -15.3% |
| Cc1nn(C)c(C)c1CN(C)CC1(O)CCCN(C)C1 (stereo not given) | -19.1% |
| Cc1ccc(-n2nnc(C(=O)O)c2C)c(C)c1 | 0.943% |
| O[C@H]1[C@H](n2cc(-c3cncnc3)nn2)c2ccccc2C12CCNCC2 | -5.02% |
| Cn1cc(CN2C[C@@H]3CCCO[C@@H]3[C@H](N3CCCC3=O)C2)cn1 | -4.04% |
| O=C(O)CCCN1C[C@@H](c2ccccc2F)[C@@]2(CCCCC(=O)N2)C1 | -2.59% |
| COc1ccc(-c2nccn2CC(O)CN2CCCC2)c(F)c1 (stereo not given) | 28.4% |
| O=C1CN(C(=O)CN(CC2CCC2)CC(F)(F)F)CCN1 | -9.35% |
| CCS(=O)(=O)c1ccc2oc([C@H]3CCN(Cc4ccccc4)C3)nc2c1 | 2.59% |
| CC(C)(C)c1nnc(CN2CCN(C(=O)N3CCCCC3)CC2)o1 | -3.76% |
| COc1cccc(-c2nc(C)c(C(=O)NCCC(=O)O)s2)c1 | -15.8% |
| COc1ccccc1Nc1nc2c(C)nn(C)c2c(=O)n1C | 26.9% |
| CCNC(=O)N1CCC(NC(=O)NCCCc2cccc(F)c2)C1 (stereo not given) | -4.92% |
| CCCOC1CCCN(C(=O)c2[nH]nc(C)c2Br)C1 (stereo not given) | -8.95% |
| Cc1nc2ccccn2c1CN1C[C@@H](CN2CCOCC2)[C@@H](CO)C1 | 28.6% |
| Cn1cc(NC(=O)Cc2cccs2)c(=O)n(C)c1=O | -9.77% |
| COc1ccc(NC(=O)NCC(C)N2CCc3ccccc32)cc1 (stereo not given) | -11.4% |
| CC(=O)N(c1ccc(F)cc1)c1nc(CN2CCCC2C(C)C)cs1 (stereo not given) | 24.7% |
| CC(Sc1nncn1C)C(=O)NCCCOc1ccc(F)cc1 (stereo not given) | -22.5% |
| CN(Cc1cc(C(C)(C)C)n[nH]1)C(=O)c1ccc2nccn2c1 | -2.34% |
